Test results taken from patent US20090170886A1 (Pfizer Inc, priority 2005, published 2009).
Where two headings read alike, the source gives them in different places.

Tested on: sebum production in ear sebaceous glands of male Syrian hamsters
Assay: Animal Model for Inhibition of Sebum Production (hamster ear, HPLC of sebum lipids)
Format: in vivo, Syrian hamster
Settings: Mesocricetus auratus, 672 h, 4 weeks; for inhibition in vivo at 3 %: 3% topical twice daily; for inhibition in vivo at 1 %: 1% topical twice daily; for inhibition in vivo at 1.5 %: 1.5% topical twice daily
Description: Luderschmidt et al. describes an animal model for testing whether compounds are capable of modulating sebum secretion, Arch. Derm. Res., 258, 185-191 (1977). This model uses male Syrian hamsters, whose ears contain sebaceous glands. Based on binding data and cellular assay data, selected compounds were chosen for screening in this model. Those compounds included the products of Examples 1, 20, 81, 82, and 109.
Testing for sebum inhibition was carried out in the following manner. Male Syrian hamsters aged 9 to 10 weeks were introduced into the laboratory environment and acclimated for 2 weeks prior to use in the study. Each group consisted of 5 animals and run in parallel with vehicle and positive controls. Prior to administration, a sufficient quantity of each compound was dissolved in 1 mL of a solvent consisting of ethanol, transcutol, and propylene glycol ([…]) to achieve the final concentration specified in Table IV below.
Animals were dosed topically twice daily, five days a week, for 4 weeks. Each dose consisted of 25 micro liters of vehicle control or drug. The dose was applied to the ventral surfaces of both the right and left ears. All animals were sacrificed approximately 18-24 hours after the final dose. The right ears were collected from each animal and used for sebum analysis.
The ears were prepped for HPLC analysis in the following manner. One 8 mm distal biopsy punch was taken, just above the anatomical “V” mark in the ear to normalize the sample area. The punch was pulled apart. The ventral biopsy surface (the area where the topical dose was directly applied to the sebaceous glands) was retained for testing and the dorsal surface of the biopsy punch was discarded.
Tissue samples were blown with N2 gas and stored at −80° C. under nitrogen until HPLC analysis. In addition to ear samples, an aliquot of each drug and vehicle (at least 250 ul) was also stored at −80° C. for inclusion in the HPLC analysis.
HPLC analysis was carried out on an extract of the tissue sample. Tissue samples were contacted with 3 ml of solvent (a 4:1 admixture of 2,2,4-trimethylpentane and isopropyl alcohol). The mixture was shaken for 15 minutes and stored overnight at room temperature, protected from light. The next morning 1 milliliter of water was added to the sample and shaken for 15 minutes. The sample was then centrifuged at approximately 1500 rpm for 15 minutes. Two ml of the organic phase (top layer) was transferred to a glass vial, dried at 37° C., under nitrogen, for approximately 1 hour, and then lyophilized for approximately 48 hours. The samples were then removed from the lyophilizer and each vial was reconstituted with 600 μl of solvent A (trimethylpentane/tetrahydrofuran (99:1)). The samples were then recapped and vortexed for 5 minutes.
Two hundred (200) μl of each sample was then transferred to a pre-labeled 200 μl HPLC vial with 200 μL glass inserts. The HPLC vials were placed in the autosampler tray for the Agilent 1100 series HPLC unit. The Agilent 1100 HPLC system consisted of a thermostated autosampler, a quarternary pump, a column heater, and an A/D interface module. All components were controlled by Agilent ChemStation software. A Waters Spherisorb S3W 4.6×100 mm analytical column was maintained at 30° C. by the Agilent column heater unit.
The HPLC autosampler was programmed to maintain the sample temperature at 20° C. throughout the run.
Ten (10) uL of each sample was injected in triplicate into the column. Two solvents were used for the solvent gradient. Solvent A was an admixture of trimethylpentane and tetrahydrofuran (99:1). Solvent B was ethylacetate. The gradient utilized is described in the table below: […]
The Sedex 75 Evaporative Light Scattering Detector (ELSD) was operated at 45° C. with a gain of 5, and N2 pressure maintained at 3.1 bar. Analog signal obtained by the instrument was sent to the Agilent A/D interface module where it was converted to a digital output. […]

[1] = cholesterol ester vs vehicle control, read-out: % CE reduction
[2] = wax ester vs vehicle control, read-out: % WE reduction

Compound `CC(Oc1ccc(C#N)c(C(F)(F)F)c1)c1ccccc1` (racemic) [Example 1, 4-(1-Phenyl-ethoxy)-2-trifluoromethyl-benzonitrile] has an inhibition in vivo at 3 % [1] of 52% and an inhibition in vivo at 3 % [2] of 71%.

`C=CCC(Oc1ccc(C#N)c(C(F)(F)F)c1)c1cccc(O)c1` (single isomer, unassigned; (-)) [Example 19, (−)4-{[1-(3-Hydroxyphenyl)but-3-enyl]oxy}-2-(trifluoromethyl)benzonitrile] showed an inhibition in vivo at 1 % [1] of 6% and an inhibition in vivo at 1 % [2] of 13%.

In the case of `CCCC(Oc1ccc(C#N)c(C(F)(F)F)c1)c1cccc(O)c1` (racemic) [Example 14, 4-[1-(3-Hydroxyphenyl)butoxy]-2-(trifluoromethyl)benzonitrile], the inhibition in vivo at 3 % [1] is reported as 18% and the inhibition in vivo at 3 % [2] is reported as 38%.

Compound `CC(C)CC(Oc1ccc(C#N)c(C(F)(F)F)c1)c1cccnc1` (stereo not drawn) [Example 88, 4-(3-Methyl-1-pyridin-3-yl-butoxy)-2-trifluoromethyl-benzonitrile] has an inhibition in vivo at 1 % [1] of 17% and an inhibition in vivo at 1 % [2] of 25%.

`N#Cc1ccc(OCc2cccc(O)c2)cc1C(F)(F)F` [Example 6, 4-[(3-Hydroxybenzyl)oxy]-2-(trifluoromethyl)benzonitrile] showed an inhibition in vivo at 1.5 % [1] of 25% and an inhibition in vivo at 1.5 % [2] of 40%.

`CC(C)CC(Oc1ccc(C#N)c(C(F)(F)F)c1)c1cccc(O)c1` (single isomer, unassigned; (+)) [Example 21, (+)4-[1-(3-Hydroxyphenyl)-3-methylbutoxy]-2-(trifluoromethyl)benzonitrile] gave an inhibition in vivo at 1 % [1] of 7% and an inhibition in vivo at 1 % [2] of 19%.

`CCC(Oc1ccc(C#N)c(C(F)(F)F)c1)c1ccccn1` (stereo not drawn) [Example 79, 4-(1-Pyridin^−2-yl-propoxy)-2-trifluoromethyl-benzonitrile] gave an inhibition in vivo at 1 % [1] of 20% and an inhibition in vivo at 1 % [2] of 27%.

In the case of `Cc1ccc(C(CC(C)C)Oc2ccc(C#N)c(C(F)(F)F)c2)cn1` (stereo not drawn) [Example 89, 4-[3-Methyl-1-(6-methyl-pyridin-3-yl)-butoxy]-2-trifluoromethyl-benzonitrile], the inhibition in vivo at 1 % [1] is reported as 21% and the inhibition in vivo at 1 % [2] is reported as 35%.

Compound `CCCC(Oc1ccc(C#N)c(C(F)(F)F)c1)c1cccc(O)c1` (single isomer, unassigned; (+)) [Example 15, (+)4-[1-(3-Hydroxyphenyl)butoxy]-2-(trifluoromethyl)benzonitrile] has an inhibition in vivo at 1 % [1] of -10% and an inhibition in vivo at 1 % [2] of -13%.

`CC(Oc1ccc(C#N)c(C(F)(F)F)c1)c1cccc(O)c1` (single isomer, unassigned; (-)) [Example 9, (−)-4-[1-(3-Hydroxyphenyl)ethoxy]-2-(trifluoromethyl)benzonitrile] showed an inhibition in vivo at 3 % [1] of 38% and an inhibition in vivo at 3 % [2] of 52%.

`CC(Oc1ccc(C#N)c(C(F)(F)F)c1)c1cncc(O)c1` (single isomer, unassigned; (+)) [Example 74, (+)4-[1-(5-Hydroxypyridin-3-yl)ethoxy]-2-(trifluoromethyl)benzonitrile] was tested, and the inhibition in vivo at 1 % [1] was 21% and the inhibition in vivo at 1 % [2] was 24%.

`COc1cccc(C(C)Oc2ccc(C#N)c(C(F)(F)F)c2)n1` (stereo not drawn) [Example 80, 4-[1-(6-Methoxy-pyridin-2-yl)-ethoxy]-2-trifluoromethyl-benzonitrile] showed an inhibition in vivo at 1 % [1] of 39% and an inhibition in vivo at 1 % [2] of 50%.
